From patent US9145389B2, “Benzimidazole compound crystal” (Takeda Pharmaceutical Company Limited, priority 1999, dated 2015) come the findings set out here.

Data set [1] relates to Gastric Mucosal Injury Due to Stress of Water Immersion Restraint in Rat. The experiment in a line: Suppressive action on gastric mucosal injury due to stress of water immersion restraint in rat. Format: in vivo. Conditions: male SD rats, 3 mg/kg orally 30 minutes before stressing. Here is the method: Suppressive Action on Gastric Mucosal Injury Due to Stress of Water Immersion Restraint in Rat
Male SD rats (7 weeks of age, weighing 230 to 250 g) were fasted for 24 hours, after which they were stressed by being housed in restraint cages and immersed to below the xiphoid process in a standing position in a 23° C. constant-temperature water chamber. After 5 hours, the rats were removed from the cages and sacrificed using gaseous carbon dioxide, and their stomachs excised. After the lower portion of the esophagus was clipped, a 1% formalin solution (10 ml) was injected into the stomach via the duodenum, which was then occluded, and the stomach was immersed in the same solution. After 10 minutes, an incision was made along the greater curvature, and the length (mm) of each mucosal injury was measured under a stereomicroscope. The overall sum of the injury lengths in each stomach was taken as the gastric mucosal injury index.
The crystals of (R)-2-[[[3-methyl-4-(2,2,2-trifluoroethoxy)-2-pyridinyl]methyl]sulfinyl]-1H-benzimidazole (R(+)-lansoprazole) as obtained in Example 2 were suspended in 0.5% methyl cellulose (pH 9.5) containing 0.05 M NaHCO3 and orally administered at 30 minutes before stressing (dosing volume 2 ml/kg). Each treatment group comprised 9 animals. The control group (solvent administration group) and the drug administration group were compared by Steel's test.

Data set [2] in a line: Stability during storage at 60° C. (stopper removed), content by HPLC. Format: physicochemical. Conditions: for Description: appearance after storage at 60° C. (exposed). Here is the method: The crystals of R(+)-lansoprazole as obtained in Example 2 (about 5 mg) and amorphous R(+)-lansoprazole as obtained in Reference Example 1 (about 5 mg) were each taken in a colorless glass bottle, and their stability during storage at 60° C. (stopper removed) was examined. A 25 ml solution (concentration: about 0.2 mg/ml) of the sample after completion of storage in the mobile phase, along with a standard solution prepared using the initial lot, was analyzed under the HPLC conditions shown below, and the R(+)-lansoprazole content (residual percentage) was calculated from the peak area obtained.

With `Cc1c(OCC(F)(F)F)ccnc1C[S@@+]([O-])c1nc2ccccc2[nH]1` [Example 2, (R)-2-[[[3-methyl-4-(2,2,2-trifluoroethoxy)-2-pyridinyl]methyl]sulfinyl]-1H-benzimidazole], the “Gastric mucosal injury index” value in data set [1] (5 hours water immersion restraint, mean ± standard error, 9 animals) worked out at 0.2 ± 0.2 mm. The compound also gave a Suppression rate in data set [1] (versus control group) of 98.0%. Besides, the Description entry in data set [2] (1 week, listed as Crystal) is reported as “Light-brown”; in data set [2] (2 weeks, listed as Crystal), “Brown”; in data set [2] (4 weeks) it was “Brown”. The “Content (Residual percentage)” value in data set [2] (storage at 60° C. (exposed), 1 week, listed as Crystal) was 97.0%; in data set [2] (storage at 60° C. (exposed), 2 weeks, listed as Crystal), 93.8%; in data set [2] (storage at 60° C. (exposed), 4 weeks), 91.7%. In addition, the Content retained result in data set [2] (storage at 60° C. (exposed), for up to 4 weeks) was “exceeding 90%”.

With `Cc1c(OCC(F)(F)F)ccnc1C[S@@+]([O-])c1nc2ccccc2[nH]1` [Reference Example 1, (R)-2-[[[3-methyl-4-(2,2,2-trifluoroethoxy)-2-pyridinyl]methyl]sulfinyl]-1H-benzimidazole, reference compound], the Description entry in data set [2] (1 week, listed as Amorphous) is listed as “Brown”; in data set [2] (2 weeks, listed as Amorphous), “Blackish brown”. The “Content (Residual percentage)” value in data set [2] (storage at 60° C. (exposed), 1 week) is recorded as 70.8%; in data set [2] (storage at 60° C. (exposed), 1 week, listed as Amorphous), 70.8%; in data set [2] (storage at 60° C. (exposed), 2 weeks), 57.5%; in data set [2] (storage at 60° C. (exposed), 2 weeks, listed as Amorphous), 57.5%.
